Row | SMILES | melting point [°C]
1 | CNC(=O)Nc1cc(-c2cccc(NC(=O)N3CC(OC(C)(C)C)C3)c2C)cn2ccnc12 [Example I-75, 3-tert-Butoxy-azetidine-1-carboxylic acid {2-methyl-3-[8-(3-methyl-ureido)-imidazo[1,2-a]pyridin-6-yl]-phenyl}-amide] | 158 to 161
2 | Cc1c(NC(=O)c2ccc(C(C)(C)C)cc2)cccc1-c1cc(Nc2nccs2)c2nccn2n1 [Example I-12, 4-tert-Butyl-N-{2-methyl-3-[8-(thiazol-2-ylamino)-imidazo[1,2-b]pyridazin-6-yl]-phenyl}-benzamide] | 178 to 179
3 | Cc1c(NC(=O)c2ccc(C(C)(C)C)cc2)cccc1-c1cc(NC(=O)NC(C)(C)C)c2nccn2n1 [Example I-10, 4-tert-Butyl-N-{3-[8-(3-tert-butyl-ureido)-imidazo[1,2-b]pyridazin-6-yl]-2-methyl-phenyl}-benzamide] | 191 to 193
4 | Cc1c(NC(=O)c2ccc(C(C)(C)C)cc2)cccc1-c1cc(NC(=O)NC(C)C)c2nccn2n1 [Example I-6, 4-tert-Butyl-N-{3-[8-(3-isopropyl-ureido)-imidazo[1,2-b]pyridazin-6-yl]-2-methyl-phenyl}-benzamide] | 178 to 180
5 | CNC(=O)Nc1cc(-c2cccc(CC(=O)N3Cc4ccccc4C3)c2)nn2ccnc12 [Example I-14, 1-(6-{3-[2-(1,3-Dihydro-isoindol-2-yl)-2-oxo-ethyl]-phenyl}-imidazo[1,2-b]pyridazin-8-yl)-3-methyl-urea] | 244 to 245
6 | CNC(=O)Nc1cc(-c2cccc(NC(=O)c3ccc([Si](C)(C)C)cc3)c2C)cn2ccnc12 | 143.5 to 154.4

Continued, values first:

Row | melting point [°C] | SMILES
7 | 132 to 133 | CC(=O)Nc1cc(-c2cccc(NC(=O)c3ccc(C(C)(C)C)cc3)c2C)cn2ccnc12 [Example I-57, N-[3-(8-Acetylamino-imidazo[1,2-a]pyridin-6-yl)-2-methyl-phenyl]-4-tert-butyl-benzamide]
8 | 137 to 138 | O=C(Cc1cccc(-c2cc(Nc3ccc(C(=O)N4CCOCC4)cn3)c3nccn3c2)c1)N1CC(OC(C(F)(F)F)C(F)(F)F)C1 [Example I-90, 2-(3-{8-[5-(Morpholine-4-carbonyl)-pyridin-2-ylamino]-imidazo[1,2-a]pyridin-6-yl}-phenyl)-1-[3-(2,2,2-trifluoro-1-trifluoromethyl-ethoxy)-azetidin-1-yl]-ethanone]
9 | 69 to 70 | CNC(=O)Nc1cc(-c2ccccc2)cn2ccnc12 [Example I-61, 1-Methyl-3-(6-phenyl-imidazo[1,2-a]pyridin-8-yl)-urea]
10 | 153.7 to 164.4 | Cc1c(NC(=O)c2ccc(N(C)C)cc2)cccc1-c1cc(NC(=O)NCCO)c2nccn2c1 [Example I-64, 4-Dimethylamino-N-(3-{8-[3-(2-hydroxy-ethyl)-ureido]-imidazo[1,2-a]pyridin-6-yl}-2-methyl-phenyl)-benzamide]
11 | 185.4 to 215 | Cc1c(NC(=O)c2ccc(C(C)(C)C)cc2)cccc1-c1cc(NC(N)=O)c2nccn2c1 [Example I-67, 4-tert-Butyl-N-[2-methyl-3-(8-ureido-imidazo[1,2-a]pyridin-6-yl)-phenyl]-benzamide]
12 | 147.6 to 152.9 | CNC(=O)Nc1cc(-c2cccc(NC(=O)c3ccc(OC)cc3)c2C)cn2ccnc12 [Example I-78, 4-Methoxy-N-{2-methyl-3-[8-(3-methyl-ureido)-imidazo[1,2-a]pyridin-6-yl]-phenyl}-benzamide]
13 | 147.1 to 151.7 | CNC(=O)Nc1cc(-c2cccc(NC(=O)c3ccc(OC(C)C)cc3)c2C)cn2ccnc12 [Example I-81, 4-Isopropoxy-N-[2-methyl-3-[8-(3-methyl-ureido)-imidazo[1,2-a]pyridin-6-yl]-phenyl}-benzamide]
14 | 148.4 to 153.2 | CNC(=O)Nc1cc(-c2cccc(NC(=O)c3ccc(OC(F)(F)F)cc3)c2C)cn2ccnc12 [Example I-79, N-{2-Methyl-3-[8-(3-methyl-ureido)-imidazo[1,2-a]pyridin-6-yl]-phenyl}-4-trifluoromethoxy-benzamide]
